Here are results for 15 molecules from ChEMBL document CHEMBL5210121, “Affinity On-target Cellular Literature for EUbOPEN Chemogenomics Library wave 3” (2023).

Experiment [1] has as its target P2Y purinoceptor 14 (Homo sapiens) (UniProt Q15391). Particulars: Affinity On-target Cellular Source Knowledge https://pubs.acs.org/doi/10.1021/jm200400m,https://pubs.acs.org/doi/10.1021/ml300280g, https://www.sgc-ffm.uni-frankfurt.de/#!specificprobeoverview/MSD-M1PAM.
Experiment [2] addresses Activin receptor type-1B (Homo sapiens, UniProt P36896). The experiment can be described thus: Affinity On-target Cellular interaction (NanoBRET assay (HEK293T cells)) EUB0000710a ACVR1B. On the technique in general: Bioluminescence resonance energy transfer reports proximity on the nanometre scale.
Experiment [3] concerns the target TGF-beta receptor type-1 (Homo sapiens, UniProt P36897). The experiment is described as follows: Affinity On-target Cellular interaction (NanoBRET assay (HEK293T cells)) EUB0000710a TGFBR1.
Experiment [4] deals with CREB-binding protein (Homo sapiens, UniProt Q92793). The experiment can be described thus: Affinity On-target Cellular interaction (NanoBRET assay (HEK293T cells)) EUB0000195c CREBBP. Also noted: mode of action Inhibitor, recommended concentration 1 uM.
The target in experiment [5] is T1, Leucine-rich repeat serine/threonine-protein kinase 2 (Homo sapiens, UniProt Q5S007). The experiment is described as follows: Affinity On-target Cellular interaction (NanoBRET assay (HEK293T cells)) EUB0000706a LRRK2.
In experiment [6] the target is Inhibitor of nuclear factor kappa-B kinase subunit epsilon (Homo sapiens, UniProt Q14164).
The target of experiment [7] is Serine/threonine-protein kinase TBK1 (Homo sapiens, UniProt Q9UHD2).
The target in experiment [8] is D(4) dopamine receptor (Homo sapiens, UniProt P21917). The experiment is described as follows: Affinity On-target Cellular interaction (Fluorometric Imaging Plate Reader (FLIPR) Assay (agonist activity at human D4.4 receptor in HEK293 cells coexpressing G-alpha-qo5)) EUB0000332a DRD4. In kind it is cell-based. The arrangement: mode of action Negative control for ABT-724, recommended concentration 100 nM.

Experiment [9] has as its target Cystic fibrosis transmembrane conductance regulator (Homo sapiens, UniProt P13569, F508DEL). The experiment can be described thus: Affinity On-target Cellular interaction (CFTR Restoration Trans-Epithelial Current Clamp (TECC) assay (in HBE cells from F508del CF patients)) EUB0000264b CFTR. The arrangement: mode of action Negative control for A-1596586, recommended concentration 1 uM. In kind it is cell-based.

Experiment [10] concerns the target Histone-lysine N-methyltransferase SETD7 (Homo sapiens, UniProt Q8WTS6). The experiment can be described thus: Affinity On-target Cellular interaction (Immunoblot (increase in nuclear YAP levels by treatment of MEFs (from Setd7+/+ mice) with 10 µM PFI-2)) EUB0000196bCl SETD7. Also noted: mode of action Inhibitor, recommended concentration 1 uM. In general terms: A western blot detects proteins with antibodies after separation by electrophoresis.

Experiment [11] deals with Mas-related G-protein coupled receptor member X2 (Homo sapiens, UniProt Q96LB1). The experiment can be described thus: Affinity On-target Cellular interaction (PRESTO-Tango concentration response assay (by the NIMH-PDSP)) EUB0000345a MRGPRX2. Also noted: mode of action Negative control for (R)-ZINC 3573, recommended concentration 1 uM.
In experiment [12] the target is Proteinase-activated receptor 1 (Homo sapiens, UniProt P25116). The experiment is described as follows: Affinity On-target Cellular interaction (Functional cellular assay in HEK cells expressing F2R) EUB0000333a F2R. The arrangement: mode of action Negative control for BAY-386, recommended concentration 100 nM. The format is cell-based.
Experiment [13] concerns the target Endothelin receptor type B (Homo sapiens, UniProt P24530). The experiment can be described thus: Affinity On-target Cellular interaction (Cellular functional assay (antagonist effect, Eurofins)) EUB0000339a EDNRB. Also noted: mode of action Negative control for A-192621, recommended concentration 100 nM.
Experiment [14] has as its target G-protein coupled receptor 52 (Homo sapiens, UniProt Q9Y2T5).
The target of experiment [15] is T1, Leucine-rich repeat serine/threonine-protein kinase 2. The experiment can be described thus: Affinity On-target Cellular interaction (Cellular assay (LRRK2 phosphorylation)) EUB0000629a LRRK2. The arrangement: mode of action Inhibitor, recommended concentration 100 nM.
In experiment [16] the target is Serine/threonine-protein kinase PLK1 (Homo sapiens, UniProt P53350). The experiment can be described thus: Affinity On-target Cellular interaction (ELISA (PLK1 phosphorylation of Ser15-p53 in HeLa cells)) EUB0000698a PLK1. In kind it is cell-based. Also noted: mode of action Inhibitor, recommended concentration 100 nM. In general terms: ELISA stands for enzyme-linked immunosorbent assay.

For experiment [17], the target named is Chromatin remodeling regulator CECR2 (Homo sapiens, UniProt Q9BXF3). The experiment is described as follows: Affinity On-target Cellular interaction (NanoBRET assay (dose-dependent displacement from histone H3.3 in HEK293T cells)) EUB0000201c CECR2. In kind it is cell-based. The arrangement: mode of action Inhibitor, recommended concentration 1 uM.

Each structure is given as a SMILES string.

The IC50 is the concentration that gives 50% inhibition. For orientation: EC50 means the concentration needed to bring the measured effect to its halfway point. Read a high EC50 as a less potent agent.

T1 sequence (Q5S007 whole entry): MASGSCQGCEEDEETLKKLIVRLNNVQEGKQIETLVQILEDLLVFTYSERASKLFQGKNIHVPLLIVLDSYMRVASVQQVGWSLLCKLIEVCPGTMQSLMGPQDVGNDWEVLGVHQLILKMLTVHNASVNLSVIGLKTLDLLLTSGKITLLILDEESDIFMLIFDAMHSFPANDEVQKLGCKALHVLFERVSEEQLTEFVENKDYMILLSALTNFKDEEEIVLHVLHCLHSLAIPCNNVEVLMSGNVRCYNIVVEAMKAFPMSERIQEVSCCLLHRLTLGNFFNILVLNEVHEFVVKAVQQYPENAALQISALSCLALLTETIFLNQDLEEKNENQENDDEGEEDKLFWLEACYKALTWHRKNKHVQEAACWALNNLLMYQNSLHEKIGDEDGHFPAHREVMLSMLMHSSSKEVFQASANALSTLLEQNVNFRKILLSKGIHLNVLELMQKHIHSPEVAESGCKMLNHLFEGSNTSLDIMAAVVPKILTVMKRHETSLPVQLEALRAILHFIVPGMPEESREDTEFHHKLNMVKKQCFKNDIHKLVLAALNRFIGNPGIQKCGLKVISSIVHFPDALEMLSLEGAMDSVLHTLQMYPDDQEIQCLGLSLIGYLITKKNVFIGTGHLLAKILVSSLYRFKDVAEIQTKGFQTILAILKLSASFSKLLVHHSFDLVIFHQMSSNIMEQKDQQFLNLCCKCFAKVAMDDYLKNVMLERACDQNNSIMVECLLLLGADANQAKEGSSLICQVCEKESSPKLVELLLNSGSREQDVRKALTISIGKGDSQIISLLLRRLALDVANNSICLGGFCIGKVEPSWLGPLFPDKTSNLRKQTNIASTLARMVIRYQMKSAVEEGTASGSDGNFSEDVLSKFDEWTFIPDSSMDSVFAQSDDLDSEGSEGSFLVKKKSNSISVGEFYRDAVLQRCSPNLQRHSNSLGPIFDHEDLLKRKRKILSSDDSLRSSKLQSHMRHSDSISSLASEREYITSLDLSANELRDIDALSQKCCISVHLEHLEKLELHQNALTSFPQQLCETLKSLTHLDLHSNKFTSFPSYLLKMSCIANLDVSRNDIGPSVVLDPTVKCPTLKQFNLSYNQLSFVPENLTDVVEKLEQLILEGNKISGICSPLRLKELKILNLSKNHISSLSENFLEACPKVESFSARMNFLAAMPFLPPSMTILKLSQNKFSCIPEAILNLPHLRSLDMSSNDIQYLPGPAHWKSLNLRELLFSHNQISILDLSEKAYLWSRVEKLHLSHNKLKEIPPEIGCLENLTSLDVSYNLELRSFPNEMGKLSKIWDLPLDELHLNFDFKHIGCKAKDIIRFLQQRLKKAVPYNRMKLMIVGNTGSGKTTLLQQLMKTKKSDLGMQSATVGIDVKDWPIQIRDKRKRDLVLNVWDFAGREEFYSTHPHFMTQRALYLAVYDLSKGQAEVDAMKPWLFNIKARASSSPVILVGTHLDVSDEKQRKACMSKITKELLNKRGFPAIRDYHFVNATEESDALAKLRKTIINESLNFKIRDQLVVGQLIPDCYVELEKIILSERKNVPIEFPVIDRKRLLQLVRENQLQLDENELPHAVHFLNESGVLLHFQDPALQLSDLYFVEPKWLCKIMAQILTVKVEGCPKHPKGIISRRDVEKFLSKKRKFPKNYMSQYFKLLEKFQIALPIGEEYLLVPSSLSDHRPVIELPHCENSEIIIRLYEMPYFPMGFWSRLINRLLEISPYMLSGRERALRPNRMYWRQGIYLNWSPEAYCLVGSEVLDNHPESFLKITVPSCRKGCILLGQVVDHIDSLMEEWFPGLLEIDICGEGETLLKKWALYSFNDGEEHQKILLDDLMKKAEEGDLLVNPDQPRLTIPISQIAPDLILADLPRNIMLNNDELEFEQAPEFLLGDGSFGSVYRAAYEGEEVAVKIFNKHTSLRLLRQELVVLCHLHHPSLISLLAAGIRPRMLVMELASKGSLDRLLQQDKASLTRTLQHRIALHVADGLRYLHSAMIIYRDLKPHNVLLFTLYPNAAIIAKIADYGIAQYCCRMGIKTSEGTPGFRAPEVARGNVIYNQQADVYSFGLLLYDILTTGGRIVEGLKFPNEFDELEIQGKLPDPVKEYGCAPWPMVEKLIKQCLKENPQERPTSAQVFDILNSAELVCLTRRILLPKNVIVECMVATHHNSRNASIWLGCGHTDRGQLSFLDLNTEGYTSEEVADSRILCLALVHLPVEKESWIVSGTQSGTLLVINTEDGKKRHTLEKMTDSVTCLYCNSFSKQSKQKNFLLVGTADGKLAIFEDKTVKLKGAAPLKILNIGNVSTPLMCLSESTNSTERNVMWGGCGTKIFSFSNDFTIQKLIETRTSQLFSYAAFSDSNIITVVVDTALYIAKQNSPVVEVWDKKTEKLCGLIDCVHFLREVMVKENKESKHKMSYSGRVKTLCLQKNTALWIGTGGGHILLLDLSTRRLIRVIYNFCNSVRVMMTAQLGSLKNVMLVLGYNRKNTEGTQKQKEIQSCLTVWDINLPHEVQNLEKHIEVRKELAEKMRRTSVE
Serine/threonine-protein kinase TBK1, sequence (Q9UHD2 whole entry): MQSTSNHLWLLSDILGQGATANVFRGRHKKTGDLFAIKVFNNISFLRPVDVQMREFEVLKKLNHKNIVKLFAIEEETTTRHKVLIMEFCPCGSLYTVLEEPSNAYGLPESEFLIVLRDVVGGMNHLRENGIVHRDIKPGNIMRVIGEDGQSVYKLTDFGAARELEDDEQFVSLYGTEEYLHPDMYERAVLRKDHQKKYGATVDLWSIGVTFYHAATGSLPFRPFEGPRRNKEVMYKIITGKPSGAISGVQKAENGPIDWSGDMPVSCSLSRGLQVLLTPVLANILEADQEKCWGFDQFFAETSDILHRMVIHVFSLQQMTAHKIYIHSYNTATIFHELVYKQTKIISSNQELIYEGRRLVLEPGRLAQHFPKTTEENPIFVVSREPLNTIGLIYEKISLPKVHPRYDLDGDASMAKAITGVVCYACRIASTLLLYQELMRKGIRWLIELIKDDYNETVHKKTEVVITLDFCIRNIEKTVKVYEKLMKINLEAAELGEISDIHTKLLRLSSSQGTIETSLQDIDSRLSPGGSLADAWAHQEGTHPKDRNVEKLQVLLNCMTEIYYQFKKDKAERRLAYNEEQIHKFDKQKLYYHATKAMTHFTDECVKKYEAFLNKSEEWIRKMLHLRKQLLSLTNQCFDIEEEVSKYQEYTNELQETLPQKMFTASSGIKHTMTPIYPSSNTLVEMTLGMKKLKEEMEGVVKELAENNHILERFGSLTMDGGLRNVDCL
P2Y purinoceptor 14 (Homo sapiens), sequence (Q15391 whole entry): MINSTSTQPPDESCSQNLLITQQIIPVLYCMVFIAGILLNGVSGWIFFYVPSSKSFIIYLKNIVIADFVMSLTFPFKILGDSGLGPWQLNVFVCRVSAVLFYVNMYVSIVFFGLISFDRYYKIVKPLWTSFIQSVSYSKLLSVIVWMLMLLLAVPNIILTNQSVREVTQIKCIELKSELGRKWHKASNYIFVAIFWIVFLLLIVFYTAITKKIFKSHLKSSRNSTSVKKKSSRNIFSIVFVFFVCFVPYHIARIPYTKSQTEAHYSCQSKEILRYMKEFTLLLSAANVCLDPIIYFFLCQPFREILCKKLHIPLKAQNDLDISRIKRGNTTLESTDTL
Chromatin remodeling regulator CECR2, sequence (Q9BXF3 whole entry): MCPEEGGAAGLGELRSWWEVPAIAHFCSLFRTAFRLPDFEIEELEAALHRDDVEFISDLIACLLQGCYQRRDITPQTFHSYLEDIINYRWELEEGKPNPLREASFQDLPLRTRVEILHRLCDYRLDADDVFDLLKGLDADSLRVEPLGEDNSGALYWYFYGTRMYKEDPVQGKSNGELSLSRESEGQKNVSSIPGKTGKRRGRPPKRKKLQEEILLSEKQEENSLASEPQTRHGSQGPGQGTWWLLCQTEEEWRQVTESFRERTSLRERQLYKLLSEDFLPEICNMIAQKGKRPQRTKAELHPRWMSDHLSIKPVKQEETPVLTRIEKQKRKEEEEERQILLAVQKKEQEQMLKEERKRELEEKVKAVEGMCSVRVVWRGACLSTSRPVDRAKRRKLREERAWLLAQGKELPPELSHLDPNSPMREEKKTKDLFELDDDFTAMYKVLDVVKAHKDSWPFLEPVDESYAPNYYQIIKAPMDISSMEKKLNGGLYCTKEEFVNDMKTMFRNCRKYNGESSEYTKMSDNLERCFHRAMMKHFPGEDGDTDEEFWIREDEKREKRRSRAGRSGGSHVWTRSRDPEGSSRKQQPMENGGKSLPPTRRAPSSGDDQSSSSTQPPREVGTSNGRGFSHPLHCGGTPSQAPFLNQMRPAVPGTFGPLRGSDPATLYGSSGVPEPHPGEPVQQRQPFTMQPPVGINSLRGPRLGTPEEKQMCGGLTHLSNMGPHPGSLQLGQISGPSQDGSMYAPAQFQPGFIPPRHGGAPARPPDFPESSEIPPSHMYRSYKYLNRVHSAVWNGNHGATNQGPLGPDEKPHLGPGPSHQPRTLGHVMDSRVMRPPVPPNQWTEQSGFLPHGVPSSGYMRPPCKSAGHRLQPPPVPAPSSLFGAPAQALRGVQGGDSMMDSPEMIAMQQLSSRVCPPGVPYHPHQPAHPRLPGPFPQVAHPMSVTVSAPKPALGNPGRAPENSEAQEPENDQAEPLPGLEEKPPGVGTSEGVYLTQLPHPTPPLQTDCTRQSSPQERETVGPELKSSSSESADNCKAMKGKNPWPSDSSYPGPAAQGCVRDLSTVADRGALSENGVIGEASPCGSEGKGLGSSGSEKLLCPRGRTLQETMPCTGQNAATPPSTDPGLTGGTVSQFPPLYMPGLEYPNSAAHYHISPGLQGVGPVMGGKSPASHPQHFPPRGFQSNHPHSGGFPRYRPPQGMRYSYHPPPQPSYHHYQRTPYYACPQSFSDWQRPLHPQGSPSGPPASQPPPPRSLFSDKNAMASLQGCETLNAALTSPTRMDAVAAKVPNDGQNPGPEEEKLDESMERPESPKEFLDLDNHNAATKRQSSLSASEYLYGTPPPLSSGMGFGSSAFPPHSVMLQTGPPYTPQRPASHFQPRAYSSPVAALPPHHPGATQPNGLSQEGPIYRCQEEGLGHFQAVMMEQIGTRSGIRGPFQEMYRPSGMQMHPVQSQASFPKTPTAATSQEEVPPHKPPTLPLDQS

Turning to `O=C(O)c1cc(-c2ccc(C3CCNCC3)cc2)c2ccc(-c3ccc(C(F)(F)F)cc3)cc2c1`, the Potentiation inflection point in [1] is over 10 µM.

Consider `Cc1cnc(-c2cc(Cl)ccc2F)cc1-n1c(=O)n(CC(N)=O)c2ccccc21` [Al11], for which the IC50 in [2] and in [3] was over 10000 nM each time.

Molecule `CCC(=O)N1CCOc2c(cc(-c3ccc(OC)c(OC)c3)cc2OC[C@H]2CCCN(C)C2)C1` came in with an IC50 in experiment [4] of 600 nM.

In turn, `C[C@@H]1CN(c2cc(-c3nn(C)c4ccc(OC5(C)CC5)cc34)ncn2)C[C@H](C)O1` [MLi-2-NC] returned an EC50 in experiment [5] of 421 nM.

Consider `CN(C)c1ncnc(-c2ccc3nc(Nc4cc(CN5CCN(C(=O)CC(F)(F)F)CC5)ccn4)[nH]c3c2)c1Cl` [BAY-440], for which the IC50 in [6] and in experiment [7] was over 27000 nM each time.

`CSc1cccnc1N1CCN(Cc2nc3ccccc3[nH]2)CC1` [A-769] returned an EC50 in [8] of over 10000 nM.

In experiment [9], `COc1ccc2c(c1)O[C@H](c1ccc(OC)c(OC)c1)C[C@@H]2NC(=O)C1(c2ccc3c(c2)OC(F)(F)O3)CC1` [A-1596584] displayed an EC50 of over 3000 nM.

In turn, `O=C([C@@H](Cc1cccc(C(F)(F)F)c1)NS(=O)(=O)c1cc(F)c2c(c1)CCNC2)N1CCCC1` yielded an EC50 in experiment [10] of under 10000 nM.

In the case of `CN(C)[C@H]1CCN(c2cc(-c3ccccc3)nc3ccnn23)C1` [(S)-ZINC-3573], the EC50 in experiment [11] was over 100000 nM.

In the case of `Cc1noc([C@H]2C[C@@H](c3ccc(C(F)(F)F)cc3)CN(C(=O)N3CCS(=O)(=O)C3)C2)n1` [BAY-448], the IC50 in [12] was over 10000 nM.

Consider `CCCOc1ccc([C@@H]2[C@@H](C(=O)O)[C@H](c3ccc4c(c3)OCO4)CN2CC(=O)Nc2c(CC)cccc2CC)cc1` [A-1806262], for which the IC50 in [13] was over 10000 nM.

In turn, `Cc1nc(Cc2cccc(C(F)(F)F)c2)sc1-c1ccc(C(N)=O)nc1` [TP-024n] showed an EC50 in experiment [14] of over 1000 nM.

On to `CNc1nc(Nc2cnn([C@H]3CCN(C4COC4)C[C@@H]3F)c2Cl)ncc1C(F)(F)F`, for which half-maximal inhibition in [15] (IC50) required 19 nM.

`COc1cc2ncn(-c3cc(OCc4ccccc4C(F)(F)F)c(C(N)=O)s3)c2cc1OC` [GW843682X] returned an IC50 in [16] of 140 nM.

In the case of `CCCS(=O)(=O)c1nc(NC2CC2)cc(-c2ccc3c(ccn3C3CC(C)(C)NC(C)(C)C3)c2)n1`, the IC50 in [17] is 255 nM.
